System: LDLR protein
Assay: Western blot analysis, relative quantification of LDLR protein levels
Assay type: cell-based, human
Details: overnight, hepatoma cells (HepG2, FIG. 13), normalized to actin, vehicle (DMSO) = 1
Protocol: For sterol-regulated conditions, HepG2 cells were incubated in 5% LPDS, 50 μM mevastatin, and 50 μM mevalonolactone in the absence (-sterols) or presence of 1 μg/ml 25-hydroxycholesterol and 10 μg/ml cholesterol (+sterols). For inhibitor treatments HepG2 cells were treated with DMSO or 10 μM compounds 2 in combination with U0126 (25 μM, catalog no. 9903, Cell Signaling Technology), Cycloheximide (CHX; 20 μg/ml, catalog no. C7698, Sigma-Aldrich), PD153035 (20 μM, catalog no. 14879, Cayman Chemical), bisindolylmaleimide I (BIM; 10 μM, catalog no. 13298, Cayman Chemical), H-89 (10 μM, catalog no. 10010556, Cayman Chemical), Dorsomorphin (5 μM, catalog no. 11967, Cayman Chemical) or 5-Azacytidine (10 μM, catalog no. A2385, Sigma-Aldrich).
Treated cells from Example 28 were washed three times in phosphate-buffered saline (PBS) and lysed in radioimmune precipitation assay buffer (50 mM Tris/HCl, pH 8.0, 1% (v/v) Nonidet P-40, 0.5% sodium deoxycholate, 150 mM NaCl, and 0.1% (v/v) SDS) supplemented with a complete protease inhibitor mixture (catalog no. 11 697 498 001, Roche Applied Science). Proteins were separated by 8% SDS polyacrylamide gel electrophoresis, blotted on nitrocellulose membranes (Bio-Rad), and blocked for 1 h in Tris-buffered saline-Tween 20 (TBS-T; 50 mM Tris-HCl, pH 7.5, 150 mM NaCl, 0.1% Tween 20) containing 5% nonfat dry milk. Membranes were then incubated overnight in TBS-T supplemented with 1% nonfat milk and the indicated antibodies; goat anti-human LDLR (1:1000; catalog no. AF2148, R&D Systems), rabbit anti-actin (1:5000; catalog no. A2066, Sigma-Aldrich). Appropriate HRP-conjugated secondary antibodies (1:10,000; GE healthcare) were used for detection using the Western Lightning Ultra chemiluminescence kit (catalog no. NEI112001EA, PerkinElmer Life Sciences) and BioFlex EC Films (catalog no. CLEC810, InterScience). Unsaturated films were numerized using the high resolution CanoScan 9000F scanner and corresponding bands were quantified using the ImageJ software (NIH). Relative quantification of LDLR protein levels were normalized to that of actin and compared to vehicle (DMSO) herein determined as 1.

Structure (SMILES): O=C(NO)c1ncc(COc2ccc(F)cc2)c(CO)c1O [Compound 2, 5-(4-fluoro-phenoxymethyl)-3-hydroxy-4-hydroxymethyl-pyridine-2-carboxylic acid hydroxyamide]
- LDLR Fold Change 10 nM (10 nM): 2
- LDLR Fold Change 10 μM (10 μM): 6.3

Source: US11400082B2, “Methods of treating elevated plasma cholesterol” (Montréal Heart Institute, priority 2017, dated 2022)
